{
  "source": "patent US8183230B2",
  "about": "“Antimicrobial preservatives to achieve multi-dose formulation using beta-cyclodextrins for liquid dosage forms” (priority 2004, dated 2012)",
  "key": {"[1]": {"tested_on": "Escherichia coli, Pseudomonas aeruginosa, Staphylococcus aureus, Candida albicans, Aspergillus niger", "assay": "Hybrid USP/Ph. Eur. antimicrobial effectiveness test (AET)", "format": "cell-based", "experimental": "Preparation of Preserved Formulations. […] Antimicrobial preservatives with optimal activity at a pH outside the nominal formulation value (pH 4.4) were titrated to either 3.5 or 5.0 using 1 N HCl or 1 N NaOH. A stock solution of either 10% or 5% (weight/volume) SBE-CD containing 10 mgA/mL of the compound of Formula Ia citrate was prepared. Preservative was added to the respective formulation on a weight basis.\nAntimicrobial Efficacy Testing. A hybrid USP […]/Ph. Eur. 2000 antimicrobial effectiveness test (AET) was performed, as follows: 20 mL of drug product was individually inoculated with 0.1-0.2 mL of bacterial or fungal culture, per USP/Ph. Eur. compendial requirements. The final concentration of organisms in the test sample was between 1×10^5 and 1×10^6 cfu/mL. At initial 6 hr, 24 hr, 7 day, 14 day, and 28 day time intervals, 1 mL of the inoculated product was transferred into 9 mL of a recovery diluent, that was validated to confirm neutralization of the antimicrobial preservative. One mL of the diluted sample was then transferred to a sterile petri dish and combined with 15-20 mL of an agar broth to culture the organisms. Plates were then incubated for 3 to 5 days, upon which colonies were counted. Initial organism contamination was then calculated based on dilution of the initial sample.\nGenerally, the USP test requirements are less stringent than Ph. Eur. requirements, which typically have an immediate bacteriocidal activity requirement. The Ph. Eur. requirements shown in Table III have either a “Criteria A” or “Criteria B” specification depending on the rate of microorganism reduction, with criteria A requiring an increased bacteriocidal rate. In order to meet the combined hybrid assay, the initial inoculum count of microorganisms needed to be reduced by the amounts listed in Table V."}, "[2]": {"conditions": "Study A; pH: 4.4, SBE-CD: 10%; compound of Formula Ia at 10 mgA/mL; content: ethanol 15%, meta-cresol 0.3%, propylene glycol 50%, thimerosal 0.01", "experimental": "Injection site toleration was measured by inspecting the patient for signs of reaction, including erythema (size); skin thickening (size), pain on palpation and edema. Table VI provides a detailed explanation of the scoring system: a score of 0 (no reaction) to 4 (severe reaction) was given for each characteristic and each injection site daily.\nCompound of Formula Ia formulations were evaluated for injection site toleration (hereinafter “IST”).\nFormulations were tested in groups of 4 dogs comprised of beagles and mongrels. […] Dogs were observed daily for evidence of reaction at the injection site and a score of 0-4 (see Table VI) was given for each of the following parameters: pain on injection, erythema, tissue thickening, pain on palpation and edema. Dogs were observed daily until day 5 (24 hours after the last dose)."}, "[3]": {"tested_on": "Escherichia coli, Pseudomonas aeruginosa, Staphylococcus aureus, Candida albicans, Aspergillus niger", "conditions": "as indicated by literature; cited from earlier work"}},
  "note": "“Also recorded” adds a separate entry of the source.",
  "data": [
    {"smiles": "Cc1cccc(O)c1", "note": "[meta-cresol]", "values": [
      {"measurement": "reducing the microorganisms", "setting": "[1]", "value": "effective"},
      {"measurement": "AET Results Ph. Eur. Criteria A", "setting": "[1]; Study A, pH: 4.4, SBE-CD: 10%, compound of Formula Ia at 10 mgA/mL, content: ethanol 15%, meta-cresol 0.3%, propylene glycol 50%, thimerosal 0.01, cells without ✓ print organism (time point)", "value": "s. aur (6, 24 hr); also recorded: c. alb (7 d)"},
      {"measurement": "Ph. Eur. criteria B", "setting": "[1]; leads of Study B", "value": "met criteria B"},
      {"measurement": "Ph. Eur. criteria A for preservative efficacy", "setting": "[1]; meta-cresol containing formulations", "value": "robustly meeting Ph. Eur. criteria A"},
      {"measurement": "activity against bacteria", "setting": "[1]; when SBE-CD was present in the formulation", "value": "greatly diminished"},
      {"measurement": "IST", "setting": "[2]", "value": "Good"},
      {"measurement": "USP and Ph. Eur. criteria A or B requirements", "setting": "[3]", "value": "met both the USP and either Ph. Eur. criteria A or B requirements"}
    ]}
  ]
}
